According to paper PMC10608817, “Extending the Affinity Range of Weak Affinity Chromatography for the Identification of Weak Ligands Targeting Membrane Proteins” (Molecules, 2023):

Target: T1, Adenosine-A2A Receptor (AA2AR) (Homo sapiens, UniProt P29274)
T1 construct: gene ADORA2A; human AA2AR N-terminally fused to the flag and decahistidine tags, in nanodiscs
Assay: biochemical
Format: binding

T1 sequence (P29274 whole entry, the tested form may be a part): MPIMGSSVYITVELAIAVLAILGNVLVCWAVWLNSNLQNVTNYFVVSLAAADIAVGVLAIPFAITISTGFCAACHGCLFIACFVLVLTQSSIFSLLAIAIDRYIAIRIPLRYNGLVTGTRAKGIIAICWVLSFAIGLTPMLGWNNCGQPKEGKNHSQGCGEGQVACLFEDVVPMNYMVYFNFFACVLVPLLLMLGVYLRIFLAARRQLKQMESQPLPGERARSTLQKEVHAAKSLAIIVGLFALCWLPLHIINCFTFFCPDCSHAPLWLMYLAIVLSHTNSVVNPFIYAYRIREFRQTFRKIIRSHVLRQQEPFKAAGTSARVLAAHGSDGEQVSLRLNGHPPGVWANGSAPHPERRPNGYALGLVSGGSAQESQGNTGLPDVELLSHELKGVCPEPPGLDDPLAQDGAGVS

COc1ccc2[nH]ccc2n1 [F468, 5-methoxy-1H-pyrrolo[3,2-b]pyridine]
Kd: 210 µM

COc1cc2cc[nH]c2cn1 [F469, 5-methoxy-1H-pyrrolo[2,3-c]pyridine]
Kd: 190 µM
